Test results as given in ChEMBL document CHEMBL4321834, “Glechomanamides A-C, Germacrane Sesquiterpenoids with an Unusual Δ8-7,12-Lactam Moiety from Salvia scapiformis and Their Antiangiogenic Activity” (J Nat Prod, 2019).
The source made the active and inactive calls.

Experiments:
[1] = test system: HUVEC; experiment: Decrease in D-glucose-induced ANGPT2 mRNA expression in HUVEC at 500 uM incubated for 48 hrs in presence of […] by real time-PCR analysis; assay type: functional, cell-based; conditions: Homo sapiens
[2] = test system: HUVEC; experiment: Decrease in D-glucose-induced BMP4 mRNA expression in HUVEC at 500 uM incubated for 48 hrs in presence of […] by real time-PCR analysis; assay type: functional, cell-based; conditions: Homo sapiens
[3] = biological target: Vascular endothelial growth factor receptor 2 (Homo sapiens) (UniProt P35968); experiment: Inhibition of VEGF-induced VEGFR2 phosphorylation in HUVEC at 1 to 100 uM preincubated for 30 mins followed by stimulation with VEGF for 20 mins by Western blot analysis; assay type: cell-based
[4] = test system: HUVEC; experiment: Decrease in total VEGF expression in HUVEC at 1 to 100 uM preincubated for 30 mins followed by incubation with VEGF for 20 mins by Western blot analysis; assay type: functional, cell-based; conditions: Homo sapiens
[5] = test system: HUVEC; experiment: Decrease in HK2 expression in HUVEC at 1 to 100 uM preincubated for 30 mins followed by incubation with VEGF for 20 mins by Western blot analysis; assay type: functional, cell-based; conditions: Homo sapiens
[6] = biological target: Vascular endothelial growth factor receptor 2 (Homo sapiens) (UniProt P35968); experiment: Inhibition of VEGFR2 in HUVEC assessed as inhibition of VEGF-induced tube formation incubated for 8 hrs by inverted microscopic method; assay type: cell-based
[7] = biological target: Vascular endothelial growth factor receptor 2 (Homo sapiens) (UniProt P35968); experiment: Inhibition of VEGFR2 in HUVEC assessed as inhibition of VEGF-induced tube formation at 80 uM incubated for 8 hrs by inverted microscopic method; assay type: cell-based
[8] = test system: HUVEC; experiment: Decrease in D-glucose-induced ANGPT2 mRNA expression in HUVEC at 10 uM incubated for 48 hrs in presence of […] by real time-PCR analysis; assay type: functional, cell-based; conditions: Homo sapiens
[9] = test system: HUVEC; experiment: Decrease in D-glucose-induced BMP4 mRNA expression in HUVEC at 10 uM incubated for 48 hrs in presence of […] by real time-PCR analysis; assay type: functional, cell-based; conditions: Homo sapiens
[10] = test system: HUVEC; experiment: Decrease in GLUT1 expression in HUVEC at 1 to 100 uM preincubated for 30 mins followed by incubation with VEGF for 20 mins by Western blot analysis; assay type: functional, cell-based; conditions: Homo sapiens
[11] = test system: HUVEC; experiment: Decrease in BMP4 expression in HUVEC at 1 to 100 uM preincubated for 30 mins followed by incubation with VEGF for 20 mins by Western blot analysis; assay type: functional, cell-based; conditions: Homo sapiens

Measured: inhibition

Chain of Vascular endothelial growth factor receptor 2 (Homo sapiens) (P35968 whole entry): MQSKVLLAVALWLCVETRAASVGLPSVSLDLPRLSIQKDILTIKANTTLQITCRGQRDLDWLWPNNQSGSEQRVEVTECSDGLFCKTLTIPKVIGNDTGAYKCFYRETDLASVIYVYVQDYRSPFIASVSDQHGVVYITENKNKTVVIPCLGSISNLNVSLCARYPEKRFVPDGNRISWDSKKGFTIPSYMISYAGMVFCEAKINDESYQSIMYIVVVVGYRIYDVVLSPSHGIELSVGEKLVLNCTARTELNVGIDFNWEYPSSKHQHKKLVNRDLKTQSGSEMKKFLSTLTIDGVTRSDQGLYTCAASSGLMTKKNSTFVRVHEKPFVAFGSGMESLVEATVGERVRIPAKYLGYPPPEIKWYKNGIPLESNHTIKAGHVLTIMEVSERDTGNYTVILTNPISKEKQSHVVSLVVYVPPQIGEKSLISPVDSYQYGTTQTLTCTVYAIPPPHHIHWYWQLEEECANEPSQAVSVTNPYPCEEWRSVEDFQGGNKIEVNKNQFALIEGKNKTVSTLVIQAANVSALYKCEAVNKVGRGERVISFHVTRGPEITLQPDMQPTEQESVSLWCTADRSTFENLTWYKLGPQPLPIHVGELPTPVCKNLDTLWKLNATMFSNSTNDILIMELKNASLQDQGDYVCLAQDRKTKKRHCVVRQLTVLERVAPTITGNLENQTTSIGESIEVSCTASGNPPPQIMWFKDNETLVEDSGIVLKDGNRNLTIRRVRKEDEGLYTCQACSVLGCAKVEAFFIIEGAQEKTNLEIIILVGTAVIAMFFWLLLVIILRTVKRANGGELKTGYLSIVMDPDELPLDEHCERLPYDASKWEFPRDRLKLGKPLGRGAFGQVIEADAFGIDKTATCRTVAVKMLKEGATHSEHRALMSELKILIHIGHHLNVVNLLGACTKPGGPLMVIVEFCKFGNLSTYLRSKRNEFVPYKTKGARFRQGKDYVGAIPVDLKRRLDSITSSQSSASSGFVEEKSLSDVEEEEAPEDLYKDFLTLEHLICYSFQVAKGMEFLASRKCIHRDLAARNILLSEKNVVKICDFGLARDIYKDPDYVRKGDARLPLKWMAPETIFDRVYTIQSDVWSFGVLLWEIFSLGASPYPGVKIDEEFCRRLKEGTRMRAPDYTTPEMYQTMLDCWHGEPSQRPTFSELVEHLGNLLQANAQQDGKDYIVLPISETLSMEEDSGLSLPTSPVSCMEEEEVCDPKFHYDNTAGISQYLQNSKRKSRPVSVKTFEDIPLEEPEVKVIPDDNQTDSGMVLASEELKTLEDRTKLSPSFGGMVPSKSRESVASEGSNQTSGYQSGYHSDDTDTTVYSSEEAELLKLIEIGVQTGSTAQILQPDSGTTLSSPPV

CN(C)C(=N)NC(=N)N
active: [1] | [2]

C/C=C(\C)C(=O)O[C@@H]1C2=C(C)C(=O)N[C@]2(O)C[C@@]2(C)O[C@@H]2CC[C@@]2(C)O[C@H]12
active: [3] | [4] | [5] | [6] Dose-dependent effect | [7] | [8] | [9] | [10] | [11]
